Tests used:
Bcl-xl expression = details: MCF7-FGFR4 cells, 10 μM U0126 for 6 hours and 12 hours
Procedure: RNA was isolated using the RNeasy Mini Kit (Qiagen, Hilden, Germany) and reversely transcribed into cDNA using the AMV reverse transcriptase (Roche, Mannheim, Germany) and OligodT-Primer (Gibco, Germany). The RNA and cDNA concentration was measured using the NanoDrop ND1000 (PeqLab, Erlangen, Germany) system. […] PCR products were subjected to electrophoresis on a 2% agarose gel and DNA was visualized by ethidium bromide staining.

[1] = tested on: Fgfr4 mediated downstream signalling (p-Erk); test: FGF19 induced MAPK activation (P-ERK immunoblot) in breast cancer cell lines; assay type: cell-based; details: BT-474, MDA-MB-361 and ZR75-1 starved 48 h; compared to not stimulated control cells
Procedure: Secondary HRP-conjugated antibodies were goat anti-mouse (Sigma, Taufkirchen, Germany) and goat anti-rabbit (Biorad, Munich, Germany).
Cell cultures were washed with PBS and incubated at 4° C. with lysis buffer (50 mM HEPES/NaOH, pH 7.5, 150 mM NaCl, 1 mM EDTA, 10% glycerol and 1% Triton X-100) supplemented with phosphatase and protease inhibitors (10 mM sodium pyrophosphate, 1 mM PMSF, 2 mM sodium orthovanadate, 10 μg/ml aprotinin). Cellular debris was removed by centrifugation. Protein concentration measurements were performed using the Micro-BCA-Protein-Assay Kit from Pierce (Bonn, Germany). For immunoprecipitations, whole-cell lysates were combined with antibody and 30 μl of protein A- or G-sepharose slurry (GE Healthcare). The samples were incubated for 3 h on a rotation wheel at 4° C. The precipitates were washed three times with HNTG buffer (20 mM HEPES/NaOH, pH 7.5, 150 mM NaCl, 10% glycerol, 0.1% Triton X-100 and 10 mM sodium pyrophosphate) suspended in 3×SDS sample buffer, boiled for 3 min and subjected to SDS-PAGE. For Western blot analysis, proteins were transferred to nitrocellulose membranes and incubated with the appropriate antibodies. Signals were developed via an enhanced chemiluminescence detection system (ECL, Perkin Elmer, Wellesley, Mass.). Before reprobing, membranes were stripped with 65 mM Tris/HCl pH 6.8 buffer containing 2% SDS at 50° C. for 1 h.

Row | Compound | Bcl-xl expression (semiquantitative PCR) (Bcl-xl expression) | p-Erk-levels on FGF19 stimulation [1]
1 | N#CC(=C(/N)Sc1ccccc1N)/C(C#N)=C(\N)Sc1ccccc1N [U0126] | abolished | –
2 | FGF19: specific ligand of Fgfr4, FGF-Ligands purchased from TEBU | – | increased
